According to BindingDB's records for doi:10.1007/s10822-022-00478-x (Roche Innovation Center Basel, F. Hoffmann-La Roche Ltd., 2022):

These compounds were tested against cAMP and cAMP-inhibited cGMP 3',5'-cyclic phosphodiesterase 10A (Homo sapiens, UniProt Q9Y233) (assay: PDE10A assay).
Outline: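 Scintillation proximity readout of [3H]cGMP hydrolysis (50 nM final substrate, 15 min) by 2 ng/well human PDE10A after 15 min compound preincubation at RT, pH 7.5 with MgCl2. Four-parameter logistic fit gave IC50, reported as pIC50.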

Compared with `NS(=O)(=O)c1ccc(CCNC(=O)c2nc(C3CC3)cnc2Nc2cncnc2)cc1` [Roche-Dataset for PDE10A, Compound 569], `CN(C)C(=O)c1c(F)cccc1NC(=O)c1nc(C2CC2)cnc1Nc1cncnc1` [US8703768, 308] is 330-fold lower in IC50: 300 nM for the first, 0.92 nM for the second.

First: COc1ccccc1-c1cn2c(n1)C[C@H](NC(=O)c1c(C(=O)N(C)C3CC3)cnn1C)CC2 [Roche-Dataset for PDE10A, Compound 278]
Second: COc1ccccc1-c1cn2c(n1)C[C@H](NC(=O)c1c(C(=O)N3CCC3)cnn1C)CC2 [Roche-Dataset for PDE10A, Compound 330]
The IC50 of the first is 3.5-fold higher: 13 nM for the first, 3.76 nM for the second. The second is the more potent here.

Compared with `Cc1ncn(-c2ccccc2)c1C(=O)Nc1cc(-c2ccccn2)nn1C` [Roche-Dataset for PDE10A, Compound 994], `COc1ccc(Cl)cc1C(=O)Nc1cc(-c2ccccn2)nn1C` [Roche-Dataset for PDE10A, Compound 608] is 1.6-fold lower in IC50: 2150 nM for the first, 1380 nM for the second.

Going from `Cc1nc2ccccc2nc1OCc1cccc(N2CCCC2)n1` [2-methyl-3-((6-(pyrrolidin-1-yl)pyridin-2-yl)methoxy)quinoxaline] to `Cc1nc2ccccc2nc1CCc1ncc(-c2ccccc2)[nH]1` [Roche-Dataset for PDE10A, Compound 254], the IC50 falls from 38 nM to 9.25 nM (4.1-fold).

First: Cn1cc(-c2ccccc2)nc1CCc1ccccn1 [Roche-Dataset for PDE10A, Compound 467]
Second: Cn1ncc(C(=O)O)c1C(=O)Nc1ccc2cc(-c3ccccc3)nn2c1 [Roche-Dataset for PDE10A, Compound 377]
The IC50 of the first is 530-fold higher: 10000 nM for the first, 19 nM for the second. The second is the more potent here.

Compared with `Cc1cnc(C)n2nc(/C=C/c3nc(N4CCCC4)nn3C3CC3)nc12` [Roche-Dataset for PDE10A, Compound 274], `Cc1cnc(C)n2nc(/C=C/c3ncnn3C)nc12` [Roche-Dataset for PDE10A, Compound 1142] is 210-fold higher in IC50: 19 nM for the first, 3910 nM for the second. The first is the more potent here.

Going from `O=C(Nc1cccc(N2CCCC2=O)c1)c1nc(C2CC2)ccc1Nc1cncnc1` [Roche-Dataset for PDE10A, Compound 831] to `O=C(Nc1cccc(N2CCOCC2)c1)c1nc(C2CC2)cnc1Nc1cncnc1` [Roche-Dataset for PDE10A, Compound 812], the IC50 falls from 24 nM to 13 nM (1.8-fold). The second is the more potent here.

First: CC(C)Cn1ccc(NC(=O)c2c(C(=O)N3CCC3)cnn2C)n1 [Roche-Dataset for PDE10A, Compound 1055]
Second: CN(C)c1nc2cc(NC(=O)c3c(C(=O)N4CCC4)cnn3C)ccn2n1 [Roche-Dataset for PDE10A, Compound 520]
The IC50 of the first is 93-fold higher: 258 nM for the first, 2.77 nM for the second. The second is the more potent here.

Going from `COCc1ccc(Nc2cncnc2)c(C(=O)Nc2ccnn2-c2ccccn2)n1` [Roche-Dataset for PDE10A, Compound 386] to `Cn1nc(NC(=O)c2nc(C3CC3)ccc2Nc2cncnc2)cc1-c1ccccn1` [US8470820, 63], the IC50 rises from 1.47 nM to 126 nM (86-fold).

`CCN(C)c1nc2cc(NC(=O)c3c(C(=O)O)cnn3C)ccn2n1` [Roche-Dataset for PDE10A, Compound 717] and `CCOC(=O)c1cnn(C)c1C(=O)Nc1ccn2nc(N(C)CC)nc2c1` [Roche-Dataset for PDE10A, Compound 502] are within 1.5-fold of each other in IC50: 284 nM for the first, 359 nM for the second.

First: CN(C)c1nc(OCc2nc3ccccc3n2C)nc2ccc(Cl)cc12 [Roche-Dataset for PDE10A, Compound 470]
Second: Cc1ccc(C(=O)Nc2ccn3nc(-c4ccccc4)nc3c2)cn1 [Roche-Dataset for PDE10A, Compound 684]
The IC50 of the first is 39-fold lower: 119 nM for the first, 4670 nM for the second.

First: Cc1cc(C)n2nc(/C=C/c3nc(Br)nn3C)nc2n1 [Roche-Dataset for PDE10A, Compound 1158]
Second: Cc1cc(C)n2nc(CCc3nc(N(C)C)nn3C)nc2n1 [Roche-Dataset for PDE10A, Compound 1140]
The IC50 of the first is 19-fold higher: 10000 nM for the first, 535 nM for the second. The second is the more potent here.

Compared with `COc1ccc2c(=O)n(C)c3c(C)nc(C)n3c2c1` [Roche-Dataset for PDE10A, Compound 1111], `CC(=O)Nc1nc2cc(NC(=O)c3nc(C)ccc3C)ccc2s1` [Roche-Dataset for PDE10A, Compound 926] is 2.3-fold higher in IC50: 2520 nM for the first, 5770 nM for the second. The first is the more potent here.

Going from `O=C(Nc1ccnnc1)c1nc(C2CC2)cnc1Nc1cncnc1` [Roche-Dataset for PDE10A, Compound 1083] to `CN(C)CCn1ccc(NC(=O)c2nc(C3CC3)cnc2Nc2cncnc2)n1` [Roche-Dataset for PDE10A, Compound 828], the IC50 falls from 288 nM to 29 nM (9.9-fold). The second is the more potent here.

Compared with `COC(=O)c1cc(Cl)c(C)n2nc(CCc3nc(N4CCCC4)nn3C)nc12` [Roche-Dataset for PDE10A, Compound 325], `Cc1ncc(C)n2nc(CCc3nc(N)nn3C)nc12` [Roche-Dataset for PDE10A, Compound 1150] is 9.1-fold higher in IC50: 432 nM for the first, 3930 nM for the second.

Going from `CN(C)c1nc2cc(NC(=O)c3c(C(=O)N4CCOCC4)cnn3C)ccn2n1` [Roche-Dataset for PDE10A, Compound 568] to `COC1CN(C(=O)c2cnn(C)c2C(=O)Nc2ccn3nc(N4CCOCC4)nc3c2)C1` [Roche-Dataset for PDE10A, Compound 348], the IC50 rises from 39 nM to 129 nM (3.3-fold).

Going from `Cn1ncc(C(=O)N2CCC2)c1C(=O)Nc1cc(-c2ccccn2)n[nH]1` [Roche-Dataset for PDE10A, Compound 664] to `Cn1ncc(C(=O)N2CCC2)c1C(=O)Nc1cc(C2CCCCC2)n[nH]1` [Roche-Dataset for PDE10A, Compound 991], the IC50 rises from 8.3 nM to 9440 nM (1100-fold). The first is the more potent here.

Compared with `Cn1ncc(NC(=O)c2nc(C3CC3)cnc2Nc2cncnc2)c1C(=O)N1CCCO1` [US8703768, 335], `O=C(Nc1cccc(N2CCS(=O)(=O)CC2)c1)c1nc(C2CC2)cnc1Nc1cncnc1` [Roche-Dataset for PDE10A, Compound 777] is 29-fold higher in IC50: 0.75 nM for the first, 22 nM for the second.

Going from `CCn1nc(C)cc1C(=O)Nc1cc2nc(-c3ccccc3)[nH]c2cc1C(=O)NC` [Roche-Dataset for PDE10A, Compound 369] to `CCc1nc(CNC(=O)c2cnn(C)c2C(=O)Nc2ccn3cc(-c4ccccc4)nc3n2)cs1` [Roche-Dataset for PDE10A, Compound 601], the IC50 rises from 22 nM to 1130 nM (51-fold).

Compared with `CCOc1ccccc1C(=O)Nc1cc(-c2ccccn2)n[nH]1` [Roche-Dataset for PDE10A, Compound 876], `Cn1cncc1Cn1nc(-c2ccccn2)cc1NC(=O)c1nc(C2CC2)ccc1Nc1cncnc1` [US8470820, 37] is 980-fold lower in IC50: 1480 nM for the first, 1.51 nM for the second. The second is the more potent here.

Going from `O=C(Nc1ccn(CC2CC2)n1)c1nc(C2CC2)ccc1Nc1cncnc1` [Roche-Dataset for PDE10A, Compound 593] to `O=C(Nc1ccnn1CC(F)F)c1nc(C2CC2)ccc1Nc1cncnc1` [Roche-Dataset for PDE10A, Compound 642], the IC50 rises from 23 nM to 46 nM (2-fold).

Compared with `CN(C(=O)c1cnn(C)c1C(=O)N[C@@H]1CCn2c(nc(-c3ccccc3)c2Cl)C1)C1CC1` [Roche-Dataset for PDE10A, Compound 110], `Cn1ncc(C(=O)N2CCC2)c1C(=O)N[C@@H]1CCn2cc(-c3ccccc3Cl)nc2C1` [Roche-Dataset for PDE10A, Compound 408] is 23-fold lower in IC50: 52 nM for the first, 2.22 nM for the second. The second is the more potent here.

Going from `CCN(CC)C(=O)c1cnn(C)c1C(=O)Nc1ccn2nc(N3CCOCC3)nc2c1` [Roche-Dataset for PDE10A, Compound 203] to `CCOC(=O)c1cnn(C)c1C(=O)Nc1ccn2nc(-c3ccnc(F)c3)nc2c1` [Roche-Dataset for PDE10A, Compound 280], the IC50 rises from 22 nM to 790 nM (36-fold). The first is the more potent here.

Going from `CCN(C)C(=O)c1cnn(C)c1C(=O)Nc1ccn2cc(-c3cccc(OCCCF)c3)nc2n1` [Roche-Dataset for PDE10A, Compound 1] to `O=C1c2ccccc2C(=O)N1CCc1csc(-c2cccnc2)n1` [Roche-Dataset for PDE10A, Compound 292], the IC50 rises from 6.05 nM to 5910 nM (980-fold). The first is the more potent here.
